Assay results reported in PubChem BioAssay (NCI).
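Cells were grown in 96-well plates and exposed to each compound for 48 hours at five concentrations; endpoints were interpolated linearly between bracketing concentrations, or set to the highest concentration if not reached. The concentration for 50% growth inhibition is given as GI50. Definition used: TGI = concentration required for complete inhibition of growth.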

Tests used:
Test in all cases: NCI-60 cell line screen, 48 h
786-0 renal = test system: 786-0 renal
A498 renal = test system: A498 renal
A549 NSCLC = test system: A549 NSCLC
ACHN renal = test system: ACHN renal
BT-549 breast = test system: BT-549 breast
CAKI-1 renal = test system: CAKI-1 renal
CCRF-CEM leukemia = test system: CCRF-CEM leukemia
COLO 205 colon = test system: COLO 205 colon
DU-145 prostate = test system: DU-145 prostate
EKVX NSCLC = test system: EKVX NSCLC
HCC-2998 colon = test system: HCC-2998 colon
HCT-116 colon = test system: HCT-116 colon
HCT-15 colon = test system: HCT-15 colon
HL-60(TB) leukemia = test system: HL-60(TB) leukemia
HOP-62 NSCLC = test system: HOP-62 NSCLC
HOP-92 NSCLC = test system: HOP-92 NSCLC
HS 578T breast = test system: HS 578T breast
HT29 colon = test system: HT29 colon
IGROV1 ovarian = test system: IGROV1 ovarian
K-562 leukemia = test system: K-562 leukemia
KM12 colon = test system: KM12 colon
LOX IMVI melanoma = test system: LOX IMVI melanoma
M14 melanoma = test system: M14 melanoma
MALME-3M melanoma = test system: MALME-3M melanoma
MCF7 breast = test system: MCF7 breast
MDA-MB-231 breast = test system: MDA-MB-231 breast
MDA-MB-435 = test system: MDA-MB-435
MOLT-4 leukemia = test system: MOLT-4 leukemia
NCI-H226 lung = test system: NCI-H226 lung
NCI-H23 lung = test system: NCI-H23 lung
NCI-H460 lung = test system: NCI-H460 lung
NCI-H522 lung = test system: NCI-H522 lung
NCI/ADR-RES ovarian = test system: NCI/ADR-RES ovarian
OVCAR-3 ovarian = test system: OVCAR-3 ovarian
OVCAR-4 ovarian = test system: OVCAR-4 ovarian
OVCAR-5 ovarian = test system: OVCAR-5 ovarian
OVCAR-8 ovarian = test system: OVCAR-8 ovarian
PC-3 prostate = test system: PC-3 prostate
RPMI-8226 leukemia = test system: RPMI-8226 leukemia
RXF 393 renal = test system: RXF 393 renal
SF-268 CNS = test system: SF-268 CNS
SF-295 CNS = test system: SF-295 CNS
SF-539 CNS = test system: SF-539 CNS
SK-MEL-2 melanoma = test system: SK-MEL-2 melanoma
SK-MEL-28 melanoma = test system: SK-MEL-28 melanoma
SK-MEL-5 melanoma = test system: SK-MEL-5 melanoma
SK-OV-3 ovarian = test system: SK-OV-3 ovarian
SN12C renal = test system: SN12C renal
SNB-19 CNS = test system: SNB-19 CNS
SR leukemia = test system: SR leukemia
SW-620 colon = test system: SW-620 colon
T-47D breast = test system: T-47D breast
TK-10 renal = test system: TK-10 renal
U251 CNS = test system: U251 CNS
UACC-257 melanoma = test system: UACC-257 melanoma
UACC-62 melanoma = test system: UACC-62 melanoma
UO-31 renal = test system: UO-31 renal

## COc1ccc2c(c1)C(=Nc1ccc(F)c(F)c1F)c1c-2c(Nc2ccc(F)c(F)c2F)nc2ccccc12
786-0 renal
  GI50: 27.3 µM
  TGI: > 68.7 µM
A498 renal
  GI50: 17.2 µM
  TGI: 53.7 µM
A549 NSCLC
  GI50: > 59.3 µM
  TGI: > 100 µM
ACHN renal
  GI50: 41.2 µM
  TGI: > 100 µM
BT-549 breast
  GI50: 36 µM
  TGI: > 65.4 µM
CAKI-1 renal
  GI50: > 57.2 µM
  TGI: > 100 µM
CCRF-CEM leukemia
  GI50: 46.3 µM
  TGI: > 100 µM
COLO 205 colon
  GI50: 38.8 µM
  TGI: > 100 µM
DU-145 prostate
  GI50: 49.8 µM
  TGI: > 100 µM
EKVX NSCLC
  GI50: > 79.5 µM
  TGI: > 100 µM
HCC-2998 colon
  GI50: > 100 µM
  TGI: > 100 µM
HCT-116 colon
  GI50: 31.8 µM
  TGI: > 100 µM
HCT-15 colon
  GI50: 49 µM
  TGI: > 100 µM
HL-60(TB) leukemia
  TGI: 0.0392 µM
HOP-62 NSCLC
  GI50: 14.6 µM
  TGI: 43.7 µM
HOP-92 NSCLC
  GI50: 48 µM
  TGI: > 100 µM
HS 578T breast
  GI50: 22 µM
  TGI: > 100 µM
HT29 colon
  GI50: 36.6 µM
  TGI: > 100 µM
IGROV1 ovarian
  GI50: 15.9 µM
  TGI: > 72.9 µM
K-562 leukemia
  GI50: 29.5 µM
  TGI: > 100 µM
KM12 colon
  GI50: > 71.1 µM
  TGI: > 100 µM
LOX IMVI melanoma
  GI50: > 60.5 µM
  TGI: > 100 µM
M14 melanoma
  GI50: 27.7 µM
  TGI: > 100 µM
MALME-3M melanoma
  GI50: 50.6 µM
  TGI: > 100 µM
MCF7 breast
  GI50: 44 µM
  TGI: > 100 µM
MDA-MB-231 breast
  GI50: 26.6 µM
  TGI: > 60.1 µM
MDA-MB-435
  GI50: > 70.7 µM
  TGI: > 100 µM
MOLT-4 leukemia
  GI50: 24.2 µM
  TGI: > 100 µM
NCI-H226 lung
  GI50: > 44.4 µM
  TGI: > 84.1 µM
NCI-H23 lung
  GI50: > 36.1 µM
  TGI: > 62.2 µM
NCI-H460 lung
  GI50: > 75.5 µM
  TGI: > 100 µM
NCI-H522 lung
  GI50: 59.8 µM
  TGI: > 100 µM
NCI/ADR-RES ovarian
  GI50: 37.4 µM
  TGI: > 82.8 µM
OVCAR-3 ovarian
  GI50: 46.6 µM
  TGI: > 89.1 µM
OVCAR-4 ovarian
  GI50: 27.8 µM
  TGI: > 55.6 µM
OVCAR-5 ovarian
  GI50: > 46.6 µM
  TGI: > 100 µM
OVCAR-8 ovarian
  GI50: 35.9 µM
  TGI: > 78.6 µM
PC-3 prostate
  GI50: > 56.7 µM
  TGI: > 100 µM
RPMI-8226 leukemia
  GI50: 42.7 µM
  TGI: > 100 µM
RXF 393 renal
  GI50: 17.2 µM
  TGI: 56.5 µM
SF-268 CNS
  GI50: 36.8 µM
  TGI: > 100 µM
SF-295 CNS
  GI50: 41.3 µM
  TGI: > 100 µM
SF-539 CNS
  GI50: 37.7 µM
  TGI: > 83.6 µM
SK-MEL-2 melanoma
  GI50: 23.8 µM
  TGI: > 100 µM
SK-MEL-28 melanoma
  GI50: 28 µM
  TGI: > 100 µM
SK-MEL-5 melanoma
  GI50: > 74.4 µM
  TGI: > 100 µM
SK-OV-3 ovarian
  GI50: 16.3 µM
  TGI: 61.7 µM
SN12C renal
  GI50: > 58.6 µM
  TGI: > 100 µM
SNB-19 CNS
  GI50: 33.1 µM
  TGI: > 100 µM
SR leukemia
  TGI: 1.41 µM
SW-620 colon
  GI50: > 59.3 µM
  TGI: > 100 µM
T-47D breast
  GI50: > 100 µM
  TGI: > 100 µM
TK-10 renal
  GI50: 25.4 µM
  TGI: > 90.9 µM
U251 CNS
  GI50: 28.2 µM
  TGI: > 64.3 µM
UACC-257 melanoma
  GI50: > 100 µM
  TGI: > 100 µM
UACC-62 melanoma
  GI50: 23.8 µM
  TGI: > 55.1 µM
UO-31 renal
  GI50: > 89.3 µM
  TGI: > 100 µM

## C=C1C(=O)O[C@H]2[C@H]1CC/C(COC(=O)NCc1ccc(Cn3c(=O)sn(CCCC)c3=O)cc1)=C\CC[C@@]1(C)O[C@@H]21
786-0 renal
  GI50: 2 µM
  TGI: 4.02 µM
A498 renal
  GI50: 3.28 µM
  TGI: 14.1 µM
A549 NSCLC
  GI50: 13.4 µM
  TGI: 28.7 µM
ACHN renal
  GI50: 1.67 µM
  TGI: 3.08 µM
BT-549 breast
  GI50: 1.56 µM
  TGI: 3.03 µM
CAKI-1 renal
  GI50: 1.64 µM
  TGI: 3.24 µM
CCRF-CEM leukemia
  GI50: 0.657 µM
  TGI: 4.56 µM
COLO 205 colon
  GI50: 2 µM
  TGI: 3.88 µM
DU-145 prostate
  GI50: 1.81 µM
  TGI: 3.36 µM
EKVX NSCLC
  GI50: 3.32 µM
  TGI: 9.83 µM
HCC-2998 colon
  GI50: 4.1 µM
  TGI: 13.4 µM
HCT-116 colon
  GI50: 1.36 µM
  TGI: 2.78 µM
HCT-15 colon
  GI50: 2.02 µM
  TGI: 3.76 µM
HL-60(TB) leukemia
  GI50: 1.81 µM
  TGI: 5.42 µM
HOP-62 NSCLC
  GI50: 12.7 µM
  TGI: 26.6 µM
HOP-92 NSCLC
  GI50: 1.29 µM
  TGI: 2.72 µM
HS 578T breast
  GI50: 3.24 µM
  TGI: 12.7 µM
HT29 colon
  GI50: 2.08 µM
  TGI: 4.18 µM
IGROV1 ovarian
  GI50: 1.83 µM
  TGI: 3.93 µM
K-562 leukemia
  GI50: 0.891 µM
  TGI: > 100 µM
KM12 colon
  GI50: 14.8 µM
  TGI: 29.4 µM
LOX IMVI melanoma
  GI50: 1.65 µM
  TGI: 3.08 µM
M14 melanoma
  GI50: 1.45 µM
  TGI: 2.97 µM
MALME-3M melanoma
  GI50: 1.6 µM
  TGI: 3.32 µM
MCF7 breast
  GI50: 1.87 µM
  TGI: 3.91 µM
MDA-MB-231 breast
  GI50: 1.8 µM
  TGI: 3.57 µM
MDA-MB-435
  GI50: 1.65 µM
  TGI: 3.22 µM
MOLT-4 leukemia
  GI50: 1.55 µM
  TGI: 5.73 µM
NCI-H226 lung
  GI50: 11.9 µM
  TGI: 29.8 µM
NCI-H23 lung
  GI50: 4.19 µM
  TGI: 15.3 µM
NCI-H460 lung
  GI50: 5.92 µM
  TGI: 19.6 µM
NCI-H522 lung
  GI50: 1.19 µM
  TGI: 2.88 µM
NCI/ADR-RES ovarian
  GI50: 27.8 µM
  TGI: 97.9 µM
OVCAR-3 ovarian
  GI50: 1.59 µM
  TGI: 2.97 µM
OVCAR-4 ovarian
  GI50: 1.52 µM
  TGI: 3.05 µM
OVCAR-5 ovarian
  GI50: 1.93 µM
  TGI: 4.06 µM
OVCAR-8 ovarian
  GI50: 3.64 µM
  TGI: 15.2 µM
PC-3 prostate
  GI50: 1.75 µM
  TGI: 3.56 µM
RPMI-8226 leukemia
  GI50: 1.48 µM
  TGI: 4.07 µM
RXF 393 renal
  GI50: 1.57 µM
  TGI: 3.04 µM
SF-268 CNS
  GI50: 4.28 µM
  TGI: 17.2 µM
SF-295 CNS
  GI50: 15.3 µM
  TGI: 29 µM
SF-539 CNS
  GI50: 1.68 µM
  TGI: 3.24 µM
SK-MEL-2 melanoma
  GI50: 4.52 µM
  TGI: 17 µM
SK-MEL-28 melanoma
  GI50: 1.8 µM
  TGI: 3.36 µM
SK-MEL-5 melanoma
  GI50: 3.18 µM
  TGI: 9.48 µM
SK-OV-3 ovarian
  GI50: 15.2 µM
  TGI: 28.7 µM
SN12C renal
  GI50: 1.73 µM
  TGI: 3.93 µM
SNB-19 CNS
  GI50: 6.63 µM
  TGI: 19.6 µM
SR leukemia
  GI50: 0.407 µM
  TGI: 5.39 µM
SW-620 colon
  GI50: 1.51 µM
  TGI: 3.09 µM
T-47D breast
  GI50: 2.04 µM
  TGI: 4.83 µM
TK-10 renal
  GI50: 1.81 µM
  TGI: 3.59 µM
U251 CNS
  GI50: 4.15 µM
  TGI: 15.5 µM
UACC-257 melanoma
  GI50: 2.03 µM
  TGI: 4.93 µM
UACC-62 melanoma
  GI50: 1.62 µM
  TGI: 3.22 µM
UO-31 renal
  GI50: 1.45 µM
  TGI: 2.78 µM
